Article PMC6006364, “D-Cateslytin: a new antifungal agent for the treatment of oral Candida albicans associated infections” (Scientific Reports, 2018)
Converted amounts (≈) assume the structure as drawn. Non-standard residues stand in square brackets, D forms with d. Residues, ends and D or L forms follow the SMILES beside them. No end group written: not given here. rhodamine = not defined here

Tests used:
[1] = tested on: Candida albicans (ATCC 10231); assay: microbe, parasite or virus in culture; type: cell-based; conditions: for minimal inhibitory concentration (MIC): ATCC 10231, 24 h
Description: Candida albicans (ATCC© 10231^TM) was cultured in Sabouraud medium (Sigma-Aldrich) supplemented with tetracycline (10 μg/mL) and cefotaxime (10 μg/mL) at 37 °C for 24 h. Candida albicans (OD600nm = 0,001) were plated in 96-well plates and treated either with different concentrations of the peptides of interest, and/or with different concentrations of voriconazole (VCZ) (Sigma-Aldrich). As a positive control, cells were treated with 10 μg/mL VCZ. After 24 hours incubation, yeast growth was assessed by optical density OD600nm using a spectrophotometer (Multiscan EX). The MIC of the antifungal agents, defined as the lowest concentration of drug able to inhibit 100% of the growth of a pathogen was determined using a modified Gompertz model.

[2] = tested on: proteases secreted by Candida albicans; assay: Peptide stability in the supernatant of Candida albicans (HPLC); type: in vitro ADME; conditions: peptide 186 μg/mL = 100 μM in 100 μL filtered supernatant, 37 °C, 24 h; RP-HPLC C18, 214 nm; repeated three times
Description: The supernatant of Candida albicans was prepared as follows: a single colony of Candida albicans was resuspended in 5 mL of Sabouraud medium and incubated at 37 °C overnight. The culture was then centrifuged at 10000 g for 1 min and the supernatant was filtered using a 0.22 μm MillexH-GV (Merck Millipore). In order to check sterility, an aliquot of the supernatant was incubated at 37 °C for 48 h. The absence of growth was interpreted as a lack of viable microorganism.
100 μL of supernatant was then directly incubated or not with L-Ctl or D-Ctl (186 μg/mL = 100 μM) at 37 °C for 24 h. As a control, each peptide (186 μg/mL = 100 μM) as well as the combination ½ MICD-Ctl + ¼ MICVCZ were incubated in water (100 μL) at 37 °C for 24 h. Samples were then separated using a Dionex HPLC system (Ultimate 3000) on a Nucleosil reverse-phase 300–5C18-column (4.6 × 250 mm; particle size: 5 μm; porosity, 300 Å) (Macherey Nagel). Absorbance was monitored at 214 nm and the solvent system consisted of 0.1% (v/v) TFA in water (solvent A) and 0.09% (v/v) TFA in 70% (v/v) acetonitrile-water (solvent B). Elution was performed at a flow rate of 700 μL/min with a gradient of solvent B as indicated on the chromatograms. Each peak was manually collected.

[3] = tested on: Candida albicans (ATCC 10231); assay: Antifungal combination test D-Ctl + voriconazole (FIC index); type: cell-based
Description: Candida albicans (ATCC© 10231^TM) was cultured in Sabouraud medium (Sigma-Aldrich) supplemented with tetracycline (10 μg/mL) and cefotaxime (10 μg/mL) at 37 °C for 24 h. Candida albicans (OD600nm = 0,001) were plated in 96-well plates and treated either with different concentrations of the peptides of interest, and/or with different concentrations of voriconazole (VCZ) (Sigma-Aldrich). As a positive control, cells were treated with 10 μg/mL VCZ. After 24 hours incubation, yeast growth was assessed by optical density OD600nm using a spectrophotometer (Multiscan EX). The efficiency of the combination between D-Ctl and VCZ was determined by the calculation of the Fractional inhibitory concentration index (FICI) according to the following formula: FICI = FICD-Ctl + […] = (MICD-Ctl in combination/MICD-Ctl alone) + ([…] in combination/[…] alone) . According to EUCAST[38], the effect of the combination is synergistic if FICI ≤ 0,5, additive if 0,5 < FICI ≤ 1, indifferent if 1 < FICI < 2 and antagonistic if FICI ≥ 2.

[4] = tested on: Candida albicans; assay: Time-lapse video microscopy of Candida albicans with rhodamine-labelled peptides; type: cell-based; conditions: for entry into C. albicans: 10 × MIC, 30 min incubation at 37 °C, fluorescence microscopy
Description: Diluted precultures (1/1000) of Candida albicans were incubated for 1 hour at 37 °C without agitation in glass bottom μ-Dish^35mm,high (Ibidi) previously treated with poly-L-lysine. […] To perform time-lapse video microscopy, the peptides were removed and replaced by Sabouraud medium. Yeasts were then plated at 37 °C, 5% CO2, on a Nikon Eclipse Ti inverted microscope equipped with an Andor Zyla sCMOS camera and a 60X objective. To prevent evaporation, a layer of mineral oil (Sigma) was added on top of the media prior imaging. Images (fluorescence and phase contrast) were captured every 10 min for 20 hours using Nikon NIS-Elements AR software, and processed with ImageJ.

Compound | minimal inhibitory concentration (MIC) [1] [µg/mL] | stability in the supernatant of Candida albicans [2] | entry into C. albicans [4] | further results
CSCC[C@@H](NC(=O)[C@@H](CO)NC(=O)[C@H](N)CCCNC(=N)N)C(=O)N[C@H](CCCNC(=N)N)C(=O)N[C@H](CC(C)C)C(=O)N[C@H](CO)C(=O)N[C@H](Cc1ccccc1)C(=O)N[C@H](CCCNC(=N)N)C(=O)N[C@H](C)C(=O)N[C@H](CCCNC(=N)N)C(=O)NCC(=O)N[C@H](Cc1ccc(O)cc1)C(=O)NCC(=O)N[C@H](Cc1ccccc1)C(=O)N[C@H](CCCNC(=N)N)C(=O)O [D-Ctl, D-Cateslytin] (H-[dR][dS][dM][dR][dL][dS][dF][dR][dA][dR]G[dY]G[dF][dR]-OH) | 5.5 (≈ 2.96 µM) | still present |  | 
CSCC[C@H](NC(=O)[C@H](CO)NC(=O)[C@@H](N)CCCNC(=N)N)C(=O)N[C@@H](CCCNC(=N)N)C(=O)N[C@@H](CC(C)C)C(=O)N[C@@H](CO)C(=O)N[C@@H](Cc1ccccc1)C(=O)N[C@@H](CCCNC(=N)N)C(=O)N[C@@H](C)C(=O)N[C@@H](CCCNC(=N)N)C(=O)NCC(=O)N[C@@H](Cc1ccc(O)cc1)C(=O)NCC(=O)N[C@@H](Cc1ccccc1)C(=O)N[C@@H](CCCNC(=N)N)C(=O)O [L-Ctl, Cateslytin] (H-RSMRLSFRARGYGFR-OH) | 7.9 (≈ 4.25 µM) | the peak of L-Ctl disappeared |  | 
C[C@@H](c1ncncc1F)[C@](O)(Cn1cncn1)c1ccc(F)cc1F [VCZ, voriconazole] |  |  |  | MIC ([1]; Candida albicans, ATCC10231, lowest concentration inhibiting 100% of C. albicans growth, Sabouraud medium, 24 h, OD600nm, average of at least three experiments, read-out: minimal inhibitory concentration (MIC)): 0.07 µg/mL (≈ 0.2 µM); FIC (fractional inhibitory concentration) of the single agent in the combination ([3]; MIC in combination / MIC alone): 0.5; fold decrease of VCZ concentration by adding D-Ctl ([3]; with ½ MIC D-Ctl): 4; concentration of VCZ in the combination (¼ MIC VCZ) ([3]; with ½ MIC D-Ctl, kills 100% of C. albicans): 0.018 µg/mL
Rho-D-Ctl: D-Ctl with a rhodamine moiety on the N-terminal end, used for video microscopy (rhodamine-[dR][dS][dM][dR][dL][dS][dF][dR][dA][dR]G[dY]G[dF][dR]; reading uncertain) |  |  | able to enter | effect on colonies totally invaded ([4]; Rho-D-Ctl 10 × MIC (55 μg/mL), time-lapse video microscopy): systematic arrest of fungal growth and ongoing cellular divisions
Rho-L-Ctl: L-Ctl with a rhodamine moiety on the N-terminal end, used for video microscopy (rhodamine-RSMRLSFRARGYGFR; reading uncertain) |  |  | able to enter | 
